Experimental data as given in patent publication US6852750B2, “Benzenedicarboxylic acid derivatives” (Guilford Pharmaceuticals, Inc., priority 2000, dated 2005).
pEC50: −log10 of the molar value.

How the values were obtained:
cortical cell cultures = experiment: In vitro assay on ischemia (cortical cell cultures, potassium cyanide and 2-deoxyglucose); type: cell-based; details: 1 h, read-out: EC50 (neuroprotective effect)
Description: In Vitro Assay on Ischemia
To examine the in vitro effect of the compounds of formula I on ischemia, cortical cell cultures were treated with various compounds of formula I during an ischemic insult utilizing potassium cyanide and 2-deoxyglucose, and for one hour thereafter (for experimental details, see Vomov et al., J. Neurochem., Vol. 65, No. 4, pp. 1681-1691 (1995)).

BB/W diabetic rats [1] = experiment: Withdrawal latency in BB/W diabetic rats (Hargreaves); type: in vivo; details: 10 mg/kg i.p. daily, vs diabetic vehicle-treated rats, from 4 weeks through six months, FIG. 17
Excerpt: (§1) Male BB/W rats (BRI, Mass) spontaneously develop a cell mediated autoimmune destruction of pancreatic B cells, resulting in onset of insulin-dependent (Type I) diabetes (Awata and Guberski et al., Endocrinology 1995 December; 136(12):5731-5). […] This renders them valuable for experimental trials of new compounds for future treatments of this major disorder. In the present study, Compound D and Compound A were examined for their ability to alter the progression of diabetic neuropathy. The rats received daily injection of Compound D or Compound A (10 mg/kg i.p.) or vehicle, starting at the onset of diabetes (hyperglycemia) and up to 6 months thereafter. Another group of non-diabetic rats also receiving vehicle were tested. All animals were continuously monitored for body weight, urine volume, blood sugar and glycated haemoglobin. In the first month of the study, all animals were tested for thermal nociception in a Hargreaves apparatus, weekly. After the first month this was done biweekly and then monthly. The testing consists of directing an infrared heat source onto the dorsal surface of the rat hindpaw and noting the time taken for the animal to remove its paw (for detailed method, see Hargreaves et al., J. Biol. Chem. 1988 Dec. 25; 263(36):19392-7). Each animal was tested 8 times and the mean withdrawal latency noted.

STZ-diabetic rats = experiment: In vivo assay on diabetic neuropathy: motor and sensory nerve conduction velocity in STZ-diabetic rats; details: vs diabetic controls; for sensory nerve conduction velocity / motor nerve conduction velocity: 10 mg/kg daily; for sensory nerve conduction velocity: significant after 8 weeks (Compound A) or 12 weeks (Compound D); for motor nerve conduction velocity: significant after 12 weeks
Description: In Vivo Assay of NAALADase Inhibitors on Diabetic Neuropathy
Motor and sensory nerve conduction velocity was also measured in STZ-diabetic animals after 4, 8 and 12 weeks of treatment. For detailed method, see De Koning et al., Peptides 1987 May-Jun. 1987; 8(3):415-22. Briefly, stimulating needle electrodes were inserted close to the sciatic and tibial nerves with recording electrodes being placed subcutaneously over the distal foot muscles, in anesthetized rats.

BB/W diabetic rats [2] = experiment: Nerve conduction velocity in BB/W diabetic rats; type: in vivo; details: 10 mg/kg daily, vs diabetic vehicle controls, from 8 weeks to six months, FIG. 18
Excerpt: as §1, with “The testing consists of directing an infrared heat source onto the dorsal surface of the rat hindpaw and noting the time taken for the animal to remove its paw (for detailed method, see Hargreaves et al., J. Biol. Chem. 1988 Dec. 25; 263(36):19392-7). Each animal was tested 8 times and the mean withdrawal latency noted.” left out
Nerve conduction velocity was also measured every two weeks through the first eight weeks of treatment and every month thereafter through to the six months of treatment. […]

[3] = tested on: STZ-induced diabetic rats; experiment: In vivo assay on neuropathic pain, STZ-diabetic rats (Hargreaves thermal nociception); set-up: species or system Sprague-Dawley rats; details: 10 mg/kg i.p. daily, FIGS. 13A and 13B
Description: In Vivo Assay of NAALADase Inhibitors on Neuropathic Pain
Male Sprague-Dawley rats (200-225 g) were rendered diabetic by intravenous administration of streptozotocin (“STZ”, 70 mg/kg in phosphate buffered saline). Diabetic animals were divided into five groups: one group receiving Compound A (10 mg/kg or 1 mg/kg), Compound D (10 mg/kg or 1 mg/kg) or vehicle. Another group of animals (non-STZ treated) served as non-diabetic controls. Drug/vehicle treatment was started in diabetic animals 45 days post-STZ administration. STZ-induced diabetic rats were tested for sensitivity to a heat source as soon as blood glucose levels rose to 320 mg/dl or above (30 days post STZ). The rats were then acclimated to the Hargreaves apparatus and thermal nociception was monitored using an infrared heat source directed into the dorsal surface of the hindpaw, and the time taken for the animal to remove its paw noted to the nearest 0.1 seconds (for detailed method, see Hargreaves et al., J. Biol. Chem. (1988) 263(36):19392-7). The intensity of the beam source was adjusted such that the mean latency for control animals (non-STZ treated) was approximately 10 seconds. Each animal was tested 8 times and the mean difference score (between mean non-diabetic control latency and mean diabetic latency) are graphically presented in FIGS. 13A and 13B.

TGF-β1 [4] = experiment: Effect on TGF-β1 in in vitro ischemia model; type: cell-based; details: ischemic cell cultures, FIG. 1
Description: (§2) Effect of NAALADase Inhibition on TGF-β in In Vitro Ischemia Model
(§3) A NAALADase inhibitor, Compound C, was added to ischemia cell cultures to determine its effect on TGF-β levels during stroke. The experimental data, set forth

TGF-β1 [5] = experiment: TGF-β1 levels in rats subjected to MCAO (microdialysis); type: in vivo; details: FIG. 6
[6] = tested on: chronic constrictive injury-induced rats; experiment: Neuropathic pain progression, CCI model (sciatic nerve ligation, Hargreaves); type: in vivo; details: 50 mg/kg i.p. daily starting 10 days post surgery, vs vehicle, significant from 11 days of treatment, FIG. 14
Description: In Vivo Assay of NAALADase Inhibitors on Neuropathic Pain Progression CCI Model
Sciatic nerve ligation, consisting of 4 ligatures tied loosely around the sciatic nerve at 1 mm intervals proximal to the nerve trifurcation, was performed on rats. […] The rats were habituated to a Hargreaves apparatus. An infrared heat source was directed onto the dorsal surface of each rat's hindpaws and the time taken for the rat to withdraw its paws was noted. The difference in scores between the latency of the response for the paw on the operated side versus the paw on the unoperated control side was determined.
Animals received Compound C (50 mg/kg i.p. daily) or vehicle, starting 10 days post surgery. […] Normal (unoperated) rats had approximately equal latencies for both paws. This effect was significant starting at 11 days of drug treatment and persisted through to the end of the study (for 21 days of daily dosing).

[7] = tested on: rats subjected to middle cerebral artery occlusion; experiment: Neuroprotective effect in MCAO rats with TGF-β neutralizing antibodies; type: in vivo; details: FIG. 5
Excerpt: The effect of TGF-β neutralizing antibodies on the neuroprotective effect of Compound C was also studied in rats following MCAO.
One of ordinary skill in the art can appreciate that the regulation of TGF-β's by NAALADase inhibitors may have implications not only in stroke, but also in other diseases, disorders and conditions including, without limitation, neurological diseases, psychiatric diseases, demyelinating diseases, prostate cancer, inflammation, and angiogenesis.

TGF-β2 = experiment: Effect on TGF-β2 in in vitro ischemia model; type: cell-based; details: ischemic cell cultures, FIG. 2
Description: as §2, §3

ischemic cell cultures = experiment: Neuroprotective effect in ischemic cell cultures with neutralizing antibodies; type: cell-based; details: in vitro ischemia model
Description: TGF-β neutralizing antibodies were then added to the ischemic cell cultures.

Structure (SMILES): O=C(O)c1ccc(OCCCSSCCCOc2ccc(C(=O)O)cc2C(=O)O)c(C(=O)O)c1 [Compound 19, 4-[3-[[3-(2,4-dicarboxyphenoxy)propyl]-dithio]propoxy]-1,3-benzenedicarboxylic acid]
- pEC50 (cortical cell cultures): 5.60

Structure (SMILES): O=C(O)c1ccc(CCS)c(C(=O)O)c1 [Compound 22, 4-(2-mercaptoethyl)-1,3-benzenedicarboxylic acid]
- pEC50 (cortical cell cultures): 7.22

Structure (SMILES): O=C(O)c1cc(OCCCS)cc(C(=O)O)c1 [Compound 36, 5-(3-mercaptopropoxy)-1,3-benzenedicarboxylic acid]
- pEC50 (cortical cell cultures): 5.91

Structure (SMILES): O=C(O)c1cc(C(=O)O)cc(C(=O)NO)c1 [Compound 39, 5-[(hydroxyamino)-carbonyl]-1,3-benzenedicarboxylic acid]
- pEC50 (cortical cell cultures): 6.33

Structure (SMILES): O=C(O)c1cc(CS)cc(C(=O)O)c1 [Compound 41, 5-mercaptomethyl-1,3-benzenedicarboxylic acid]
- pEC50 (cortical cell cultures): 6.76

Structure (SMILES): O=C(O)CCC(CP(=O)(O)Cc1c(F)c(F)c(F)c(F)c1F)C(=O)O (centres unmarked) [Compound A, 2-[[(2,3,4,5,6-pentafluorobenzyl)hydroxyphosphinyl]methyl]pentanedioic acid]
- withdrawal latency (BB/W diabetic rats [1]): longer withdrawal latencies
- sensory nerve conduction velocity (STZ-diabetic rats): significant improvement
- motor nerve conduction velocity (STZ-diabetic rats): significant improvement
- nerve conduction velocity (BB/W diabetic rats [2]): significantly less severe nerve conduction deficits
- hyperalgesic response (withdrawal latency difference score) [3]: completely reversed

Structure (SMILES): O=C(O)CCC(CP(=O)(O)O)C(=O)O (centres unmarked) [Compound C, 2-(phosphonomethyl)pentanedioic acid]
- TGF-β1 concentrations (TGF-β1 [4]): increased concentrations
- TGF-β1 levels during occlusion and reperfusion (TGF-β1 [5]): significant rise
- difference scores between the two paws (withdrawal latency) [6]: dramatically normalized
- neuroprotective effect in vivo with TGF-β neutralizing antibodies [7]: significantly attenuated
- TGF-β2 concentrations (TGF-β2): increased concentrations
- neuroprotective effect with TGF-β neutralizing antibodies added (ischemic cell cultures; FIG. 3): blocked
- neuroprotective effect with FGF antibody added (ischemic cell cultures; FIG. 4): did not block

Structure (SMILES): O=C(O)CCC(CCS)C(=O)O (centres unmarked) [Compound D, 2-(2-sulfanylethyl)pentanedioic acid]
- withdrawal latency (BB/W diabetic rats [1]): longer withdrawal latencies
- motor and sensory nerve conduction velocities (STZ-diabetic rats; 1 mg/kg dose): increased
- sensory nerve conduction velocity (STZ-diabetic rats): increased
- motor nerve conduction velocity (STZ-diabetic rats): increased
- nerve conduction velocity (BB/W diabetic rats [2]): significantly less severe nerve conduction deficits
- hyperalgesic response (withdrawal latency difference score) [3]: completely reversed
